Experiments:
[1] = system: L428 Hodgkins lymphoma cells; assay: FACS analysis of apoptosis and cell cycle, L428 cells; assay type: cell-based, human; conditions: 48 hours
[2] = system: p53 null lung carcinoma (H1299) cells; assay: FACS analysis of apoptosis and cell cycle, H1299 cells; assay type: cell-based, human
Source text: FIG. 8 illustrates a representative FACS (fluorescence activated cell sorting) profile obtained from the experiment indicated; horizontal axis denote DNA content of the cells and the vertical axis the numbers of cells that have a particular DNA content. Apoptotic cells have a subnormal DNA content and are represented as a peak to the extreme left of the profile (sub-G1); viable cells are represented in G1 and G2/M peaks which correspond to these phases of the cell cycle. Where percentages are provided, these indicate cells in sub-G1, G1 or G2/M phases, as indicated, as a percent of the total cell population. In all cases, the existence of apoptotic cells was confirmed by additional means such as microscopic examination.
Bar charts show quantitative data obtained from representative FACS analyses for the experiments indicated. In all cases, numbers of cells that are apoptotic (sub-G1), as a percentage of the total cell population, are depicted by diagonal-hatched bars; numbers of cells that are viable and in G1 (G1/S) phase of the cell cycle, as a percentage of the total cell population, are depicted by stippled bars; viable cells in G2/M phase of the cell cycle are depicted by horizontal-hatched bars.
The experiments described in the examples were performed using methods well-known to those skilled in the art and documented in standard text books in the field (e.g. Chapters 4 and 5, Methods in Cell Biology Vol 46 editors L. M. Schwartz and B. A. Osborne, Academic Press Ltd, London 1995 provides inter alia details on detection of apoptosis and cell division cycle arrest by FACS).

[3] = system: control B lymphoid (Daudi) cell line; assay: FACS analysis of control B lymphoid cells; assay type: cell-based; conditions: for apoptotic (sub-G1) cells: 48 hours, untreated basal apoptosis approximately 50%; for effect on control B cells: rimcazole 0.1 mM, 0.01 mM, 0.001 mM (FIG. 11c), haloperidol not shown
[4] = system: human colon carcinoma (HT29) cells; assay: FACS analysis of apoptosis, HT29 cells; assay type: cell-based
Saos-2::p53^teti cells = assay: FACS analysis of osteosarcoma cells with tetracycline-inducible p53; assay type: cell-based, human
[5] = mouse, in vivo
Experimental: All drugs were dissolved in sterile water for injection and frozen as ˜2 ml aliquots, except haloperidol which was stored as a powder at RT and made up fresh each day in 45% cyclodextrin. The mice were housed in filter boxes in Maximiser laminar flow cabinets and fed sterilized food and water. All procedures were carried out in class 1 laminar flow hoods using sterile equipment and reagents. The mice were dosed daily by an intraperitoneal route (combined therapies dosed simultaneously) and body weights and tumour measurements recorded at frequent intervals.

[6] = system: MDA MB 468 human breast carcinoma xenografts; assay: Human breast carcinoma xenograft growth in athymic mice; assay type: in vivo; conditions: 10 mg/kg/day intraperitoneal, day 45; all or selected tumours
[7] = system: 293 cells (transformed kidney epithelial cells); assay: FACS (propidium iodide) analysis of apoptosis, 293 cells; assay type: cell-based, human; design: cell population induced to apoptose: dose or concentration left out as unconfirmed
MDA MB 468 cells = assay: FACS analysis of hormone insensitive breast cancer cells; assay type: cell-based, human
MCF 7::p53^val135 cells = assay: Phase micrographs of MCF 7 cells with temperature sensitive p53; assay type: cell-based, human
MCF7 cells = assay: FACS analysis of hormone responsive breast carcinoma cells; assay type: cell-based, human; conditions: rimcazole 0.001 mM, 48 hours
wild-type Saos-2 cells = assay: Wild-type Saos-2 cells lacking p53; assay type: cell-based, human; conditions: low dose rimcazole combined with doxycycline
MDA MB 231 cells = assay: FACS analysis of hormone unresponsive breast carcinoma cells; assay type: cell-based, human; conditions: rimcazole 0.001 mM, 48 hours

## COc1ccc2c(c1OC)C(=O)O[C@@H]2[C@H]1c2c(cc3c(c2OC)OCO3)CCN1C (relative stereo) [noscapine, (S-(R*,S*))-6,7-Dimethoxy-3-(5,6,7,8-tetrahydro-4-methoxy-6-methyl-1,3-dioxolo(4,5-g)isoquinolin-5-yl)-1(3H)-Isobenzofuranone]
[1]; 10^−4M
  apoptosis induction: majority of the cell population
[1]; 10^−5M
  apoptosis induction: substantial amount of apoptosis
  mitotic arrest (G2/M cells): increase in percentage of G2/M cells
[2]; 10^−4M combined with TNF 5 ng/ml
  apoptotic cells, % of total cell population: 74%
[2]; 10^−4M, 48 hours, alone
  apoptotic cells: 39%
[3]
  apoptotic (sub-G1) cells: approximately 50%
[4]; 10^−4M on its own
  apoptosis, % of cell population: 67%
[4]; 10^−4M with TNF added
  apoptosis: additional increase

## C[C@H]1c2cccc(O)c2C(=O)C2=C(O)[C@]3(O)C(=O)C(C(N)=O)=C(O)[C@@H](N(C)C)[C@@H]3[C@@H](O)[C@@H]21 [doxycycline]
Saos-2::p53^teti cells; low dose doxycycline alone
  cells undergoing apoptosis, % of total population: 4%

## O=C(CCCN1CCC(O)(c2ccc(Cl)cc2)CC1)c1ccc(F)cc1 [haloperidol, 4(4-(4-chlorophenyl)-4-hydroxy-1-piperidinyl)-1-(4-fluorophenyl)-1-Butanone]
[5]
  ill effects / toxicity in mice: transient sleepiness
[6]
  tumour growth inhibition (tumour weights at excision): growth inhibition
[2]; haloperidol 10^−5M alone
  apoptosis: 4%
[2]; haloperidol 10^−5M combined with TNF
  apoptosis: 59%
[7]; haloperidol 10^−5 M combined with transfected RelA(p65)
  apoptotic cells: 47%
[7]; haloperidol 10^−5 M on its own
  apoptotic cells: 2-3%
[7]; haloperidol without IκB (FIG. 9c)
  sub-G1 apoptotic cells, % of total cell population: 58%
[7]; non-degradable mutant IκB plasmid transfected prior to haloperidol
  sub-G1 apoptotic cells, % of total cell population: 5%
[3]
  effect on control B cells: unaffected

## Oc1ccc2c3c1O[C@H]1c4[nH]c5ccccc5c4C[C@@]4(O)[C@@H](C2)N(CC2CC2)CC[C@]314 [naltrindole]
[1]; 10^−4M
  apoptosis induction: majority of the cell population
[1]; 10^−5M
  apoptosis induction: substantial amount of apoptosis
  mitotic arrest (G2/M cells): increase in percentage of G2/M cells
[2]
  G2/M cell cycle arrest: appearance of a G2/M peak
  induction of apoptosis: marked induction of apoptosis
[7]
  induction of death: fails to induce death
  induction of sub-G1 (apoptotic) cells: marked induction
[3]
  apoptotic (sub-G1) cells: approximately 50%

## C[C@@H]1CN(CCCn2c3ccccc3c3ccccc32)C[C@H](C)N1 [rimcazole, cis-9-[3-(3,5-Dimethyl-1-piperazinyl)propyl]-9H-carbazole]
MDA MB 468 cells; 0.001 mM, approximately 48 hours
  apoptotic cells: 16%
MDA MB 468 cells; 0.01 millimoles per liter, approximately 48 hours
  apoptosis, % of cell population: 79%
MDA MB 468 cells; rimcazole 0.001 mM combined with cis-U50488 0.1 mM
  cells induced to apoptose: 83%
MCF 7::p53^val135 cells; 32 degC (p53 wild-type conformation), e.g. 0.001 mM
  apoptosis (phase micrographs): marked induction of apoptosis
MCF 7::p53^val135 cells; 37 degC
  apoptosis (phase micrographs): largely unaffected
MCF 7::p53^val135 cells; 37 degC (p53 largely inactive), 0.1 mM
  apoptosis (phase micrographs): Apoptosis is induced
Saos-2::p53^teti cells; rimcazole 100 nM alone
  cell population induced to apoptose: approximately 5%
Saos-2::p53^teti cells; rimcazole 100 nM combined with doxycycline 0.02 μg/ml
  apoptotic cells: 85%
MCF7 cells
  apoptosis: 6%
  proportion of G2/M cells: 32%
[6]
  tumour growth inhibition (tumour weights at excision): significant tumour growth inhibition
wild-type Saos-2 cells
  effect of combination on apoptosis: no effect
[2]; rimcazole 0.01 mM in combination with trans-U50488 0.1 mM
  apoptosis: 67%
[2]; sublethal dose alone
  apoptosis, % of cells: 4%
[2]; sublethal dose of rimcazole with sublethal dose of TNF
  apoptosis, % of cells: 61%
[7]; rimcazole alone
  cell population induced to apoptose: 1%
[7]; rimcazole in combination with transiently overexpressed p53
  cell population induced to apoptose: 75%
[3]
  effect on control B cells: unaffected
MDA MB 231 cells
  apoptotic cells, % of total cell population: 25%
  proportion of G2/M cells: 62%

B1: proenkephalin: proenkephalin destined for the secretory pathway, overexpressed from transiently transfected plasmid DNA (protein, UniProt P01210 1-267, looked up)
chain: MARFLTLCTWLLLLGPGLLATVRAECSQDCATCSYRLVRPADINFLACVMECEGKLPSLKIWETCKELLQLSKPELPQDGTSTLRENSKPEESHLLAKRYGGFMKRYGGFMKKMDELYPMEPEEEANGSEILAKRYGGFMKKDAEEDDSLANSSDLLKELLETGDNRERSHHQDGSDNEEEVSKRYGGFMRGLKRSPQLEDEAKELQKRYGGFMRRVGRPEWWMDYQKRYGGFLKRFAEALPSDEEGESYSKEVPEMEKRYGGFMRF
modifications: full-length
notes: proenkephalin destined for the secretory pathway, overexpressed from transiently transfected plasmid DNA
[7]; alone, 48 hours, TNF 5 ng/ml, proenkephalin 5 μg plasmid DNA (secretory) transfected
  induction of apoptosis: no induction of apoptosis
[7]; proenkephalin + TNF, co-transfection of 5 μg IκB plasmid
  reduction in percentage of sub-G1 (apoptotic) cells: greater than 50%
[7]; proenkephalin overexpressed in combination with TNF 5 ng/ml
  percentage of apoptotic (sub-G1) cells: marked increase

From patent US7572762B1, “Materials and methods relating to the induction of apoptosis in target cells” (University of Dundee, priority 1998, dated 2009)
